The subject of data set [1] is adenocarcinoma of the stomach, pancreas, and large bowel. The settings on record: combined FU and radiation vs radiation alone; cited from earlier work.
A further data set has as its system Lewis lung. The data set is described as follows: Mouse tumor panel: Lewis lung (iv, survival time). Format: in vivo. The settings on record: D1-9. The method, then:
(§1) NSC-271674 Against a Panel of a Mouse Tumors
(§2) *Survival time (mean or median) assay
(§3) Data are expressed as a percentage of the survival time in days or the
(§4) tumor weights in mg of the treated mice divided by the corresponding
(§5) values for the control mice. All testing was performed using both platinu
(§6) compounds in the same experiment. The criteria for activity are as
(§7) follows: confirmed activity (activity from two separate laboratories) of
(§8) % T/C of 150 or more for survival systems and 10% or less for tumor weigh
(§9) inhibition assays. Lower levels of activity such as a % T/C of 125 for
(§10) survival systems and 42% for tumor weight inhibition assays are considere
(§11) statistically significant.

The next data set has as its system P388/DDP. The data set is described as follows: In vivo activity against P388/DDP leukemia with acquired resistance to NSC-119875. The note with it: Days 1,5,9,13, NSC-119875 6.7 mg/kg, NSC-271674 20.0 mg/kg. From the text: P388/DDP refers to a tumor line with acquired resistance to NSC119875.
(§12) Data are expressed as survival in days and as a percentage increase in […]

The subject of the next data set is L1210/DDP. The data set is described as follows: In vitro growth inhibition of L1210/DDP (NSC-119875 resistant) cells. Type of data set: cell-based, murine. An excerpt:
(§13) The ID50 refers to the concentration of test compound required to
(§14) inhibit the growth of either the L1210 or L1210/DDP (NSC119875) resistant

Data set [2] deals with strains of murine leukemia. The data set is described as follows: Activity against strains of murine leukemia resistant to NSC 119875 (general statement). The settings on record: mouse, in vivo.
For data set [3], the system named is L1210. The data set is described as follows: Mouse tumor panel: L1210 (ip, survival time). The note with it: D1-9. Format: in vivo. The method, then:
as §1, §2, §3, §4, §5, §6, §7, §8, §9, §10, §11

Another data set relates to Colon #38. As to the kind of experiment: Mouse tumor panel: Colon #38 (sc, tumor weight inhibition). Type of data set: in vivo. The settings on record: D2,9. Here is the method:
as §1
(§15) **Tumor weight inhibition assay.
as §3, §4, §5, §6, §7, §8, §9, §10, §11

A further data set has as its system CD8F1 mammary. As to the kind of experiment: Mouse tumor panel: CD8F1 mammary (sc, tumor weight inhibition). Type of data set: in vivo. The settings on record: Q7DX5. Here is the method: as §1, §15, §3, §4, §5, §6, §7, §8, §9, §10, §11
The test system of a further data set is B16 melanoma. As to the kind of experiment: Mouse tumor panel: B16 melanoma (ip, survival time). Format: in vivo. The note with it: D1-9. Here is the method: as §1, §2, §3, §4, §5, §6, §7, §8, §9, §10, §11
Another data set has as its system P388 leukemia. As to the kind of experiment: In vivo activity against P388 leukemia. The settings on record: Days 1,5,9,13, NSC-119875 6.7 mg/kg, NSC-271674 20.0 mg/kg.
Source text: as §12

Data set [4] has as its system L1210. As to the kind of experiment: In vitro growth inhibition of L1210 cells. Type of data set: cell-based, murine.
Source text: as §13, §14

The nature of data set [5]: Renal Toxicity Screening Protocol, toxicity compared to NSC-119875. Type of data set: in vivo. The note with it: for Body Weight Loss score / Clinical Chemistry - Blood Urea Nitrogen score / Clinical Chemistry - Creatinine score / Clinical Chemistry - Serum Glutamic Pyruvic Transaminase score / Hematology - Hematocrit score / Hematology - White Blood Cell score / Histopathology - Gastrointestinal score / Histopathology - Hematopoietic score / Histopathology - Lymphatic score / Histopathology - Renal score: relative to NSC-119875; for TOTAL SCORE: sum of the ten scores.

For another data set, the system named is L1210 leukemia. Type of data set: in vivo, mice. The note with it: hydroxyurea alone, at least 1000 mg/kg.

Description for L1210 leukemia: Compound Pt-307 was administered usually in a dosage regimen of 5-60 mg/kg of body weight. This was given as a single dose or on Days 1, 5, and 9 in the standard National Institutes of Health 10-day testing.
CY was utilized at an optimum 50 mg/kg of body weight (range 25-75 mg/kg) preferably given at Day 3 in the 10-day testing. 5-FU was utilized at 75 mg/kg of body weight (range 50-100 mg/kg) at Day 3. HU was used in a high dosage of at least 1000 mg/kg of body weight (range 1000-1500 mg/kg). The 5-FU and the HU were utilized as ternary compositions only with cyclophosphamide and the platinum compound.
Hydroxyurea is utilized in combination therapy at a high dosage of at least 1000 mg/kg of body weight (range 1000-1500 mg/kg).

Take `O=c1[nH]cc(F)c(=O)[nH]1` [5-FU, 5-fluorouracil]: the “mean survival times (in words)” value in [1] was “significantly increased”.
Take `N.N.[Cl][Pt][Cl]` [NSC-119875, cisdichlorodiamino platinum II, reference compound]: the “% T/C (survival time) at optimal dose” value with Lewis lung (Lewis lung first line, optimal dose NSC-119875 2, NSC-271674 3.12 mg/kg/inj) is 135%; in the data set on Lewis lung (Lewis lung second line, optimal dose NSC-119875 2, NSC-271674 6.25 mg/kg/inj) it was 177%; in the data set with L1210 [3] (L1210 first line, optimal dose NSC-119875 2, NSC-271674 0.78 mg/kg/inj), 151%; with L1210 [3] (L1210 second line, optimal dose NSC-119875 2, NSC-271674 1.56 mg/kg/inj), 182%; with B16 melanoma (B16 first line, optimal dose NSC-119875 2, NSC-271674 6.25 mg/kg/inj), 193%; in the data set with B16 melanoma (B16 second line, optimal dose NSC-119875 1, NSC-271674 1.56 mg/kg/inj), 166%. Further, the “% ILS” value in the data set on P388/DDP is reported as 41%; in the data set with P388 leukemia it was 145%. The “Survival” value in the data set on P388/DDP is 15.5 days; in the data set with P388 leukemia, 32.6 days. Moreover, the entries for the “ID50 (concentration required to inhibit the growth of cells by 50 percent)” value in the data set on L1210/DDP and with L1210 [4] were 2.50 mg/L and 0.05 mg/L, respectively. Moreover, the “activity against NSC 119875-exhausted strains (in words)” value in [2] is reported as “has exhausted its activity”. Also, the “% T/C (tumor weight) at optimal dose” value in the data set on Colon #38 (Colon #38 first line, optimal dose NSC-119875 8, NSC-271674 12.5 mg/kg/inj) is on record as 42%; in the data set with Colon #38 (Colon #38 second line, optimal dose NSC-119875 16, NSC-271674 50 mg/kg/inj) it was 11%; in the data set with CD8F1 mammary (CD8F1 first line, optimal dose NSC-119875 8, NSC-271674 6.25 mg/kg/inj) it was 0%; with CD8F1 mammary (CD8F1 second line, optimal dose NSC-119875 8, NSC-271674 25 mg/kg/inj), 0%.
Consider `N.N.O=C([O-])C1(C(=O)[O-])CCC1.[Pt+2]` [NSC-241240, diamine [1,1cyclobutanedicarboxylato (2)0,0']platinum], for which, in data set [5], the “Body Weight Loss score” value was 1, the “Clinical Chemistry - Blood Urea Nitrogen score” value is given as 1, the “Clinical Chemistry - Creatinine score” value came out at 1 and the “Clinical Chemistry - Serum Glutamic Pyruvic Transaminase score” value is 3. In data set [5], the “Hematology - Hematocrit score” value is reported as 4, the “Hematology - White Blood Cell score” value came to 3, the “Histopathology - Gastrointestinal score” value came to 1 and the “Histopathology - Hematopoietic score” value came out at 5. For the same compound, in data set [5], the “Histopathology - Lymphatic score” value is listed as 1, the “Histopathology - Renal score” value is reported as 1 and the “TOTAL SCORE” value came to 21.
In the case of `NC1CCCCC1N.O=S(=O)([O-])[O-].[Pt+2]` (stereo not shown) [NSC-250427], in [5], the “Body Weight Loss score” value worked out at 2, the “Clinical Chemistry - Blood Urea Nitrogen score” value is listed as 1, the “Clinical Chemistry - Creatinine score” value came out at 1 and the “Clinical Chemistry - Serum Glutamic Pyruvic Transaminase score” value amounted to 5. Besides, in [5], the “Hematology - Hematocrit score” value turned out to be 3, the “Hematology - White Blood Cell score” value came to 3, the “Histopathology - Gastrointestinal score” value is listed as 1 and the “Histopathology - Hematopoietic score” value was found to be 4. For the same compound, in data set [5], the “Histopathology - Lymphatic score” value worked out at 2, the “Histopathology - Renal score” value worked out at 2 and the “TOTAL SCORE” value stood at 24.
For the compound `CC(C)N.CC(C)N.[Cl-].[Cl-].[OH-].[OH-].[Pt]` [NSC-256927, bisisopropylamine-cis-dichloro-transdihydroxy], in data set [5], the “Body Weight Loss score” value is reported as 2, the “Clinical Chemistry - Blood Urea Nitrogen score” value stood at 1, the “Clinical Chemistry - Creatinine score” value is given as 1 and the “Clinical Chemistry - Serum Glutamic Pyruvic Transaminase score” value was determined as 3. For the same compound, in data set [5], the “Hematology - Hematocrit score” value came to 4, the “Hematology - White Blood Cell score” value is reported as 3, the “Histopathology - Gastrointestinal score” value is listed as 1 and the “Histopathology - Hematopoietic score” value turned out to be 4. In data set [5], the “Histopathology - Lymphatic score” value came to 4, the “Histopathology - Renal score” value is recorded as 2 and the “TOTAL SCORE” value is recorded as 25.
In the case of `NC(=O)NO` [hydroxyurea], the “efficacy against L1210 (in words)” value in the data set on L1210 leukemia is “only minimally effective”.

The values above are taken from patent US4206207A, “Use of 4-carboxy-phthalato(1,2-diaminocyclohexane)-platinum (II) and alkali metal salts thereof with cyclophosphamide in alleviating L1210 murine leukemia” (priority 1978, dated 1980).
